# Measured values reported in US11285127B2, “Compositions and methods for lowering triglycerides without raising LDL-C levels in a subject on concomitant statin therapy” (Amarin Pharmaceuticals Ireland Limited, priority 2013, dated 2022).
# System: patients with fasting triglyceride levels >200 mg/dl and <500 mg/dl despite statin therapy
# Test: 12-week placebo-controlled study of >96% E-EPA: fasting triglycerides (TG), incl. TG goal
# Assay type: in vivo, human
# Conditions: for Median reduction in triglycerides compared to baseline / TG Median % chg from BL / TG, Diff from pbo (Hodges-Lehmann median difference) / TG, EOT (Week 12 endpoint) median / TG Diff from pbo (median % chg, Hodges-Lehmann) / TG EOT Median / Fasting Triglycerides, Week 12 EP Median (IQR): MITT; for Median reduction in triglycerides compared to baseline / Percentage Achieving TG Goal (less than 150 mg/dL): Week 12; for Fasting Triglycerides, Percent change from Baseline, Median (IQR) / Fasting Triglycerides, Difference from placebo, Estimated median: Week 12, MITT; for Fasting Triglycerides, Difference from placebo, Estimated median: difference in percent change
# Protocol: A multi-center, placebo-controlled, randomized, double-blind, 12-week study was performed to evaluate the efficacy and safety of >96% E-EPA in patients with fasting triglyceride levels >200 mg/dl and <500 mg/dl despite statin therapy (the mean of two qualifying entry values needed to be >185 mg/dl and at least one of the values needed to be >200 mg/dl). The primary objective of the study was to determine the efficacy of >96% E-EPA 2 g daily and 4 g daily, compared to placebo, in lowering fasting TG levels in patients with high risk for cardiovascular disease and with fasting TG levels 200 mg/dl and <500 mg/dl, despite treatment to LDL-C goal on statin therapy. The population for this study was men and women >18 years of age with a body mass index ≤45 kg/m^2 with fasting TG levels greater than or equal to 200 mg/dl and less than 500 mg/dl and on a stable does of statin therapy (with or without ezetimibe). The statin was atorvostatin, rosuvastatin or simvastatin. The dose of statin must have been stable for ≥4 weeks prior to the LDL-C/TG baseline qualifying measurement for randomization. The statin dose was optimized such that the patients are at their LDL-C goal at the LDL-C/TG baseline qualifying measurements. The same statin at the same dose was continued until the study ended. Approximately 702 patients were randomized at approximately 80 centers in the U.S. The study was a 18- to 20-week, Phase 3, multi-center study consisting of 2 study periods: (1) A 6- to 8-week screening period that included a diet and lifestyle stabilization, a non-statin lipid-altering treatment washout, and an LDL-C and TG qualifying period and (2) A 12-week, double-blind, randomized, placebo-controlled treatment period. After confirmation of qualifying fasting LDL-C and TG values, eligible patients entered a 12-week, randomized, double-blind treatment period. At Visit 4 (Week 0), patients were randomly assigned to 1 of the following treatment groups: • >96% E-EPA 2 g daily, • >96% E-EPA 4 g daily, or • Placebo. During the double-blind treatment period, patients were to take 2 capsules (>96% E-EPA or matching placebo) in the morning and 2 capsules in the evening for a total of 4 capsules per day. • Patients in the >96% E-EPA 2 g/day treatment group received 1>96% E-EPA 1 g capsule and 1 matching placebo capsule in the morning and in the evening. • Patients in the >96% E-EPA 4 g/day treatment group received 2>96% E-EPA 1 g capsules in the morning and evening. The primary efficacy variable for the double-blind treatment period was percent change in TG from baseline to Week 12 endpoint. The secondary efficacy variables for the double-blind treatment period included the following: • Percent changes in total cholesterol (TC), high-density lipoprotein cholesterol (HDL-C), LDL-C, calculated non-HDL-C, and very low-density lipoprotein cholesterol (VLDL-C) from baseline to Week 12 endpoint; • Percent change in very low-density lipoprotein TG from baseline to Week 12; • Percent changes in apolipoprotein A-I (Apo A-1), apolipoprotein B (Apo B), and Apo A-1/Apo B ratio from baseline to Week 12; • Percent changes in lipoprotein(a) from baseline to Week 12; • Percent changes in LDL particle number and size, measured by nuclear magnetic resonance, from baseline to Week 12; • Percent change in remnant-like particle cholesterol from baseline to Week 12; • Percent change in oxidized LDL from baseline to Week 12; • Changes in FPG and HbA1c from baseline to Week 12; • Change in insulin resistance, as assessed by the homeostasis model index insulin resistance, from baseline to Week 12; • Percent change in lipoprotein associated phospholipase A2 (Lp-PLA2) from baseline to Week 12; • Change in intracellular adhesion molecule-1 from baseline to Week 12; • Change in interleukin-2 from baseline to Week 12; • Change in plasminogen activator inhibitor-1 from baseline to Week 12. […]
# [1] = AMR 101 2 g + statin, Atorva subgroup
# [2] = AMR 101 2 g + statin, Rosuva subgroup
# [3] = AMR 101 2 g + statin, Simva subgroup
# [4] = AMR 101 2 g + statin, Statin Potency High
# [5] = AMR 101 2 g + statin, Statin Potency Low
# [6] = AMR 101 2 g + statin, Statin Potency Medium
# [7] = AMR 101 2 g + statin, Diabetes No, Week 12 endpoint
# [8] = AMR 101 2 g + statin, Diabetes Yes, Week 12 endpoint
# [9] = AMR 101 2 g + statin, Non-statin Washout No, Week 12 endpoint
# [10] = AMR 101 2 g + statin, Non-statin Washout Yes, Week 12 endpoint
# [11] = AMR 101 2 g + statin, baseline TG tertile Highest (≥289.5 mg/dL), Week 12 endpoint
# [12] = AMR 101 2 g + statin, baseline TG tertile Lowest (<230.5 mg/dL), Week 12 endpoint
# [13] = AMR 101 2 g + statin, baseline TG tertile Middle (230.5 to <289.5 mg/dL), Week 12 endpoint
# [14] = AMR 101 4 g + statin, Atorva subgroup
# [15] = AMR 101 4 g + statin, Rosuva subgroup
# [16] = AMR 101 4 g + statin, Simva subgroup
# [17] = AMR 101 4 g + statin, Statin Potency High
# [18] = AMR 101 4 g + statin, Statin Potency Low
# [19] = AMR 101 4 g + statin, Statin Potency Medium
# [20] = AMR 101 4 g + statin, Diabetes No, Week 12 endpoint
# [21] = AMR 101 4 g + statin, Diabetes Yes, Week 12 endpoint
# [22] = AMR 101 4 g + statin, Non-statin Washout No, Week 12 endpoint
# [23] = AMR 101 4 g + statin, Non-statin Washout Yes, Week 12 endpoint
# [24] = AMR 101 4 g + statin, baseline TG tertile Highest (≥289.5 mg/dL), Week 12 endpoint
# [25] = AMR 101 4 g + statin, baseline TG tertile Lowest (<230.5 mg/dL), Week 12 endpoint
# [26] = AMR 101 4 g + statin, baseline TG tertile Middle (230.5 to <289.5 mg/dL), Week 12 endpoint
# [27] = IPE 4 g/day (n = 216), 12 weeks, patients with lipoprotein data
compound,measurement,setting,value
"CC/C=C\C/C=C\C/C=C\C/C=C\C/C=C\CCCC(=O)OCC [AMR101, ethyl eicosapentaenoate]",Median reduction in triglycerides compared to baseline,2 g/day,2.6%
same,Percentage Achieving TG Goal (less than 150 mg/dL),2 g/day,3.8%
same,"Subjects who Achieved TG Goal (less than 150 mg/dL), number","2 g/day, Week 12, total n 234",9
same,Median reduction in triglycerides compared to baseline,4 g/day,17.5%
same,Percentage Achieving TG Goal (less than 150 mg/dL),4 g/day,7.1%
same,"Subjects who Achieved TG Goal (less than 150 mg/dL), number","4 g/day, Week 12, total n 226",16
same,TG Median % chg from BL,[1],−0.5%
same,"TG, Diff from pbo (Hodges-Lehmann median difference)",[1],−2.4
same,"TG, EOT (Week 12 endpoint) median",[1],245.0
same,TG Median % chg from BL,[2],−5.8%
same,"TG, Diff from pbo (Hodges-Lehmann median difference)",[2],−5.7
same,"TG, EOT (Week 12 endpoint) median",[2],252.5
same,TG Median % chg from BL,[3],−8.8%
same,"TG, Diff from pbo (Hodges-Lehmann median difference)",[3],−14.3
same,"TG, EOT (Week 12 endpoint) median",[3],241.3
same,TG Median % chg from BL,[4],−5.8%
same,"TG, Diff from pbo (Hodges-Lehmann median difference)",[4],−11.7
same,"TG, EOT (Week 12 endpoint) median",[4],239.5
same,TG Median % chg from BL,[5],−18.8%
same,"TG, Diff from pbo (Hodges-Lehmann median difference)",[5],−13.8
same,"TG, EOT (Week 12 endpoint) median",[5],208.5
same,TG Median % chg from BL,[6],−5.3%
same,"TG, Diff from pbo (Hodges-Lehmann median difference)",[6],−8.7
same,"TG, EOT (Week 12 endpoint) median",[6],248.0
same,"TG Diff from pbo (median % chg, Hodges-Lehmann)",[7],−10.8%
same,TG EOT Median,[7],245.0 mg/dL
same,TG Median % chg from BL,[7],−12.1%
same,"TG Diff from pbo (median % chg, Hodges-Lehmann)",[8],−9.8%
same,TG EOT Median,[8],244.0 mg/dL
same,TG Median % chg from BL,[8],−1.5%
same,"TG Diff from pbo (median % chg, Hodges-Lehmann)",[9],−10.7%
same,TG EOT Median,[9],229.0 mg/dL
same,TG Median % chg from BL,[9],−7.9%
same,"TG Diff from pbo (median % chg, Hodges-Lehmann)",[10],−9.5%
same,TG EOT Median,[10],249.5 mg/dL
same,TG Median % chg from BL,[10],−4.2%
same,"TG Diff from pbo (median % chg, Hodges-Lehmann)",[11],−16.9%
same,TG EOT Median,[11],320.3 mg/dL
same,TG Median % chg from BL,[11],−8.7%
same,"TG Diff from pbo (median % chg, Hodges-Lehmann)",[12],−4.1%
same,TG EOT Median,[12],207.8 mg/dL
same,TG Median % chg from BL,[12],0.7%
same,"TG Diff from pbo (median % chg, Hodges-Lehmann)",[13],−9.9%
same,TG EOT Median,[13],228.3 mg/dL
same,TG Median % chg from BL,[13],−13.0%
same,"Fasting Triglycerides, Week 12 EP Median (IQR)","AMR101 2 g/d + statin, n 234",244.3 (117.0)
same,"Fasting Triglycerides, Percent change from Baseline, Median (IQR)",AMR101 2g/d + statin,−5.6 (34.5) %
same,"Fasting Triglycerides, Difference from placebo, Estimated median",AMR101 2g/d + statin,−10.1
same,TG Median % chg from BL,[14],−23.9%
same,"TG, Diff from pbo (Hodges-Lehmann median difference)",[14],−28.4
same,"TG, EOT (Week 12 endpoint) median",[14],216.0
same,TG Median % chg from BL,[15],−20.5%
same,"TG, Diff from pbo (Hodges-Lehmann median difference)",[15],−23.4
same,"TG, EOT (Week 12 endpoint) median",[15],204.0
same,TG Median % chg from BL,[16],−14.7%
same,"TG, Diff from pbo (Hodges-Lehmann median difference)",[16],−18.8
same,"TG, EOT (Week 12 endpoint) median",[16],228.0
same,TG Median % chg from BL,[17],−20.2%
same,"TG, Diff from pbo (Hodges-Lehmann median difference)",[17],−26.0
same,"TG, EOT (Week 12 endpoint) median",[17],214.5
same,TG Median % chg from BL,[18],0.5%
same,"TG, Diff from pbo (Hodges-Lehmann median difference)",[18],−13.1
same,"TG, EOT (Week 12 endpoint) median",[18],256.8
same,TG Median % chg from BL,[19],−15.8%
same,"TG, Diff from pbo (Hodges-Lehmann median difference)",[19],−20.1
same,"TG, EOT (Week 12 endpoint) median",[19],221.0
same,"TG Diff from pbo (median % chg, Hodges-Lehmann)",[20],−16.8%
same,TG EOT Median,[20],234.5 mg/dL
same,TG Median % chg from BL,[20],−15.0%
same,"TG Diff from pbo (median % chg, Hodges-Lehmann)",[21],−23.2%
same,TG EOT Median,[21],216.5 mg/dL
same,TG Median % chg from BL,[21],−18.7%
same,"TG Diff from pbo (median % chg, Hodges-Lehmann)",[22],−20.8%
same,TG EOT Median,[22],220.0 mg/dL
same,TG Median % chg from BL,[22],−16.7%
same,"TG Diff from pbo (median % chg, Hodges-Lehmann)",[23],−22.4%
same,TG EOT Median,[23],220.8 mg/dL
same,TG Median % chg from BL,[23],−17.7%
same,"TG Diff from pbo (median % chg, Hodges-Lehmann)",[24],−31.1%
same,TG EOT Median,[24],260.0 mg/dL
same,TG Median % chg from BL,[24],−21.8%
same,"TG Diff from pbo (median % chg, Hodges-Lehmann)",[25],−14.4%
same,TG EOT Median,[25],183.5 mg/dL
same,TG Median % chg from BL,[25],−10.9%
same,"TG Diff from pbo (median % chg, Hodges-Lehmann)",[26],−17.9%
same,TG EOT Median,[26],205.0 mg/dL
same,TG Median % chg from BL,[26],−19.3%
same,"Fasting Triglycerides, Week 12 EP Median (IQR)","AMR101 4 g/d + statin, n 226",220.8 (92.0)
same,"Fasting Triglycerides, Percent change from Baseline, Median (IQR)",AMR101 4g/d + statin,−17.5 (31.0) %
same,"Fasting Triglycerides, Difference from placebo, Estimated median",AMR101 4g/d + statin,−21.5
same,"TG, Change From Baseline, % (median)",[27],−17.5%
same,"TG, End of Treatment (median)",[27],219.3 mg/dL
same,"TG, Median Change From Baseline IPE 4 g/day vs Placebo, %","IPE 4 g/day vs placebo, 12 weeks, Hodges-Lehmann median",−21.1%
